Measurements reported in the NIST ThermoML archive (doi:10.1016/j.tca.2015.06.017).

Test: xn = mol fraction of the nth substance listed
Conditions: Liquid, Vibrating tube method

CCC(C)Cl (configuration not stated) [2-chlorobutane] + CCCCCCC
mass density [kg/m3]
Conditions | 293.15 K | 298.15 K
100 kPa, x2 = 0.0524 | – | 853.5
100 kPa, x2 = 0.1018 | – | 841
100 kPa, x2 = 0.1968 | – | 818.39
100 kPa, x2 = 0.3006 | – | 795.55
100 kPa, x2 = 0.4029 | – | 774.75
100 kPa, x2 = 0.5017 | – | 756.09
100 kPa, x2 = 0.6008 | – | 738.72
100 kPa, x2 = 0.7023 | – | 722.14
100 kPa, x2 = 0.7977 | – | 707.68
100 kPa, x2 = 0.8986 | – | 693.37
100 kPa, x2 = 0.952 | – | 686.19
2000 kPa, x2 = 0.0524 | – | 855.76
2000 kPa, x2 = 0.1018 | – | 843.26
2000 kPa, x2 = 0.1968 | – | 820.66
2000 kPa, x2 = 0.3006 | – | 797.76
2000 kPa, x2 = 0.4029 | – | 776.96
2000 kPa, x2 = 0.5017 | – | 758.28
2000 kPa, x2 = 0.6008 | – | 740.85
2000 kPa, x2 = 0.7023 | – | 724.29
2000 kPa, x2 = 0.7977 | – | 709.77
2000 kPa, x2 = 0.8986 | – | 695.44
2000 kPa, x2 = 0.952 | – | 688.29
5000 kPa, x2 = 0.0524 | – | 859.07
5000 kPa, x2 = 0.1018 | – | 846.59
5000 kPa, x2 = 0.1968 | – | 823.96
5000 kPa, x2 = 0.3006 | – | 800.99
5000 kPa, x2 = 0.4029 | – | 780.1
5000 kPa, x2 = 0.5017 | – | 761.4
5000 kPa, x2 = 0.6008 | – | 743.93
5000 kPa, x2 = 0.7023 | – | 727.26
5000 kPa, x2 = 0.7977 | – | 712.67
5000 kPa, x2 = 0.8986 | – | 698.28
5000 kPa, x2 = 0.952 | – | 691.09
7000 kPa, x2 = 0.0524 | – | 861.28
7000 kPa, x2 = 0.1018 | – | 848.7
7000 kPa, x2 = 0.1968 | – | 826.06
7000 kPa, x2 = 0.3006 | – | 803.03
7000 kPa, x2 = 0.4029 | – | 782.16
7000 kPa, x2 = 0.5017 | – | 763.43
7000 kPa, x2 = 0.6008 | – | 745.91
7000 kPa, x2 = 0.7023 | – | 729.24
7000 kPa, x2 = 0.7977 | – | 714.61
7000 kPa, x2 = 0.8986 | – | 700.19
7000 kPa, x2 = 0.952 | – | 692.99
10000 kPa, x2 = 0.0524 | – | 864.5
10000 kPa, x2 = 0.1018 | – | 851.96
10000 kPa, x2 = 0.1968 | – | 829.21
10000 kPa, x2 = 0.3006 | – | 806.14
10000 kPa, x2 = 0.4029 | – | 785.11
10000 kPa, x2 = 0.5017 | – | 766.31
10000 kPa, x2 = 0.6008 | – | 748.74
10000 kPa, x2 = 0.7023 | – | 731.99
10000 kPa, x2 = 0.7977 | – | 717.31
10000 kPa, x2 = 0.8986 | – | 702.79
10000 kPa, x2 = 0.952 | – | 695.56
20000 kPa, x2 = 0.0524 | – | 874.44
20000 kPa, x2 = 0.1018 | – | 861.8
20000 kPa, x2 = 0.1968 | – | 838.93
20000 kPa, x2 = 0.3006 | – | 815.63
20000 kPa, x2 = 0.4029 | – | 794.49
20000 kPa, x2 = 0.5017 | 779.78 | 775.52
20000 kPa, x2 = 0.6008 | 761.93 | 757.79
20000 kPa, x2 = 0.7023 | 744.92 | 740.82
20000 kPa, x2 = 0.7977 | 730 | 726.04
20000 kPa, x2 = 0.8986 | 715.31 | 711.31
20000 kPa, x2 = 0.952 | 707.96 | 704.04
30000 kPa, x2 = 0.0524 | 888.05 | 883.44
30000 kPa, x2 = 0.1018 | 875.23 | 870.7
30000 kPa, x2 = 0.1968 | 852.05 | 847.61
30000 kPa, x2 = 0.3006 | 828.48 | 824.28
30000 kPa, x2 = 0.4029 | 807.16 | 802.95
30000 kPa, x2 = 0.5017 | 787.91 | 783.76
30000 kPa, x2 = 0.6008 | 769.94 | 765.87
30000 kPa, x2 = 0.7023 | 752.73 | 748.83
30000 kPa, x2 = 0.7977 | 737.68 | 733.86
30000 kPa, x2 = 0.8986 | 722.85 | 719
30000 kPa, x2 = 0.952 | 715.45 | 711.62
40000 kPa, x2 = 0.0524 | 896.17 | 891.7
40000 kPa, x2 = 0.1018 | 883.24 | 878.82
40000 kPa, x2 = 0.1968 | 859.99 | 855.64
40000 kPa, x2 = 0.3006 | 836.22 | 832.09
40000 kPa, x2 = 0.4029 | 814.71 | 810.61
40000 kPa, x2 = 0.5017 | 795.32 | 791.32
40000 kPa, x2 = 0.6008 | 777.21 | 773.3
40000 kPa, x2 = 0.7023 | 759.89 | 756.08
40000 kPa, x2 = 0.7977 | 744.68 | 741.01
40000 kPa, x2 = 0.8986 | 729.72 | 726.09
40000 kPa, x2 = 0.952 | 722.25 | 718.59
50000 kPa, x2 = 0.0524 | 903.66 | 899.36
50000 kPa, x2 = 0.1018 | 890.68 | 886.42
50000 kPa, x2 = 0.1968 | 867.25 | 863
50000 kPa, x2 = 0.3006 | 843.41 | 839.43
50000 kPa, x2 = 0.4029 | 821.7 | 817.84
50000 kPa, x2 = 0.5017 | 802.25 | 798.42
50000 kPa, x2 = 0.6008 | 784.01 | 780.24
50000 kPa, x2 = 0.7023 | 766.55 | 762.91
50000 kPa, x2 = 0.7977 | 751.26 | 747.7
50000 kPa, x2 = 0.8986 | 736.16 | 732.64
50000 kPa, x2 = 0.952 | 728.63 | 725.09
60000 kPa, x2 = 0.0524 | 910.6 | 906.5
60000 kPa, x2 = 0.1018 | 897.63 | 893.49
60000 kPa, x2 = 0.1968 | 874.05 | 870.05
60000 kPa, x2 = 0.3006 | 850.18 | 846.26
60000 kPa, x2 = 0.4029 | 828.39 | 824.58
60000 kPa, x2 = 0.5017 | 808.8 | 805.08
60000 kPa, x2 = 0.6008 | 790.44 | 786.84
60000 kPa, x2 = 0.7023 | 772.89 | 769.41
60000 kPa, x2 = 0.7977 | 757.51 | 754.11
60000 kPa, x2 = 0.8986 | 742.26 | 738.96
60000 kPa, x2 = 0.952 | 734.67 | 731.32
65000 kPa, x2 = 0.0524 | 913.94 | 909.89
65000 kPa, x2 = 0.1018 | 900.93 | 896.87
65000 kPa, x2 = 0.1968 | 877.31 | 873.4
65000 kPa, x2 = 0.3006 | 853.35 | 849.57
65000 kPa, x2 = 0.4029 | 831.52 | 827.86
65000 kPa, x2 = 0.5017 | 811.84 | 808.29
65000 kPa, x2 = 0.6008 | 793.41 | 789.99
65000 kPa, x2 = 0.7023 | 775.8 | 772.52
65000 kPa, x2 = 0.7977 | 760.33 | 757.18
65000 kPa, x2 = 0.8986 | 745.06 | 741.94
65000 kPa, x2 = 0.952 | 737.4 | 734.28
